Values of other authors in patent US20190209596A1, “METHODS OF TREATING DISEASES” (Boehringer Ingelheim International GmbH, priority 2015, published 2019).

Conditions: metformin on its own, in the diabetic

In the case of CN(C)C(=N)N=C(N)N [metformin], the “average improvement in the HbA1c value” is listed as 1.0-1.5%.
